Source: patent US8163724B2, “Glucocorticosteroids, processes for their preparation, pharmaceutical compositions containing them and their use in therapy” (AstraZeneca AB, priority 2007, dated 2012)

Each compound was assayed against T1, recombinant human GR (Homo sapiens, UniProt P04150) (assay: Human Glucocorticoid Receptor (GR) Assay (fluorescence polarization, Panvera/Invitrogen kit)). Settings: fluorescence polarization; GS Red tracer; 2 hours at room temperature; 100% control 10 μM Dexamethasone; read-out: Inhibition of GR binding, IC50.
T1 construct: purchased Panvera/Invitrogen P2812 (kit P2893)
T1 sequence (P04150 1-777): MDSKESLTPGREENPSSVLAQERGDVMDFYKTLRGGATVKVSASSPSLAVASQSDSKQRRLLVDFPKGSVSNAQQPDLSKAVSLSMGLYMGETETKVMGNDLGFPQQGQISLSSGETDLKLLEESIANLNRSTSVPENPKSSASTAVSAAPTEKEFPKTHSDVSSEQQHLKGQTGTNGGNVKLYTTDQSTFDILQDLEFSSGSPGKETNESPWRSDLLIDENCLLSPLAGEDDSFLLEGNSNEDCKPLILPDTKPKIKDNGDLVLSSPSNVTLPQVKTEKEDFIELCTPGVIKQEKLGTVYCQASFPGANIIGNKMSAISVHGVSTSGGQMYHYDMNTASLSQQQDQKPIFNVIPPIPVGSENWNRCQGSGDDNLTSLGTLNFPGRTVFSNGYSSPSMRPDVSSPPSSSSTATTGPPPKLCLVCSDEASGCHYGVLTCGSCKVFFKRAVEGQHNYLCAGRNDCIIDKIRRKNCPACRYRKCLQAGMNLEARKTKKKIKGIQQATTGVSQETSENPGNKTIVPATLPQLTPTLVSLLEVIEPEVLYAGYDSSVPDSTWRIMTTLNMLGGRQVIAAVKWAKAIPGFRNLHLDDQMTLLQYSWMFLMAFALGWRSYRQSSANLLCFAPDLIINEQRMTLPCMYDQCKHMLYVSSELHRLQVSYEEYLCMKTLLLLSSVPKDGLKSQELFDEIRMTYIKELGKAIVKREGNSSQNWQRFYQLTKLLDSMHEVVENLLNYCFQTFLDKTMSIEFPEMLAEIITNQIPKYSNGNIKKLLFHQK
Type: binding
How it was run: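 Fluorescence polarization competition with recombinant GR and GS Red fluorescent ligand plus stabilizing peptide and DTT in potassium phosphate/sodium molybdate/EDTA buffer with DMSO. Incubated 2 hours at room temperature in the dark; 0% control DMSO, 100% control 10 μM dexamethasone.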

| Compound | IC50 |
| --- | --- |
| Cc1nnsc1C(=O)O[C@]1(C(=O)SCC#N)CC[C@H]2[C@@H]3CCC4=Cc5c(cnn5-c5ccc(F)cc5)C[C@]4(C)[C@H]3[C@@H](O)C[C@@]21C [Example 6, (1R,3aS,3bS,10aR,10bS,11S,12aS)-1-{[(Cyanomethyl)thio]carbonyl}-7-(4-fluorophenyl)-11-hydroxy-10a,12a-dimethyl-1,2,3,3a,3b,4,5,7,10,10a,10b,11,12,12a-tetradecahydrocyclopenta[5,6]naphtho[1,2-f]indazol-1-yl 4-methyl-1,2,3-thiadiazole-5-carboxylate] | 5.9 nM |
| CSC(=O)[C@@]1(OC(=O)c2ccco2)CC[C@H]2[C@@H]3CCC4=Cc5c(cnn5-c5ccc(F)cc5)C[C@]4(C)[C@H]3[C@@H](O)C[C@@]21C [Example 64, (1R,3aS,3bS,10aR,10bS,11S,12aS)-7-(4-Fluorophenyl)-11-hydroxy-10a,12a-dimethyl-1-[(methylthio)carbonyl]-1,2,3,3a,3b,4,5,7,10,10a,10b,11,12,12a-tetradecahydropcyclopenta[5,6]naphtho[1,2-f]indazol-1-yl furan-2-carboxylate] | 5.8 nM |
| COCC(=O)O[C@]1(C(=O)SC)CC[C@H]2[C@@H]3CCC4=Cc5c(cnn5-c5ccc(F)nc5)C[C@]4(C)[C@H]3[C@@H](O)C[C@@]21C [Example 157, (1R,3aS,3bS,10aR,10bS,11S,12aS)-7-(6-Fluoropyridin-3-yl)-11-hydroxy-10a,12a-dimethyl-1-[(methylsulfanyl)carbonyl]-1,2,3,3a,3b,4,5,7,10,10a,10b,11,12,12a-tetradecahydrocyclopenta[5,6]naphtho[1,2-f]indazol-1-yl Methoxyacetate] | 1.1 nM |
| CCC(=O)O[C@]1(C(=O)SCC#N)CC[C@H]2[C@@H]3CCC4=Cc5c(cnn5-c5ccc(F)cc5)C[C@]4(C)[C@@]3(F)[C@@H](O)C[C@@]21C [Example 199, (1R,3aS,3bS,10aS,10bR,11S,12aS)-1-{[(Cyanomethyl)sulfanyl]carbonyl}-10b-fluoro-7-(4-fluorophenyl)-11-hydroxy-10a,12a-dimethyl-1,2,3,3a,3b,4,5,7,10,10a,10b,11,12,12a-tetradecahydrocyclopenta[5,6]naphtho[1,2-f]indazol-1-yl propanoate] | 4.6 nM |
| CCOC(=O)[C@@]1(O)CC[C@H]2[C@@H]3CCC4=Cc5c(cnn5-c5ccc(F)cc5)C[C@]4(C)[C@H]3[C@@H](O)C[C@@]21C [Example 104, Ethyl (1R,3aS,3bS,10aR,10bS,11S,12aS)-7-(4-fluorophenyl)-1,11-dihydroxy-10a,12a-dimethyl-1,2,3,3a,3b,4,5,7,10,10a,10b,11,12,12a-tetradecahydrocyclopenta[5,6]naphtho[1,2-f]indazole-1-carboxylate] | 4.2 nM |
| CCC(=O)O[C@]1(C(=O)SCF)CC[C@H]2[C@@H]3CCC4=Cc5c(cnn5-c5ccc(F)cc5)C[C@]4(C)[C@H]3[C@@H](O)C[C@@]21C [Example 19, (1R,3aS,3bS,10aR,10bS,11S,12aS)-1-{[(Fluoromethyl)thio]carbonyl}-7-(4-fluoro-phenyl)-11-hydroxy-10a,12a-dimethyl-1,2,3,3a,3b,4,5,7,10,10a,10b,11,12,12a-tetradecahydrocyclopenta[5,6]naphtho[1,2-f]indazol-1-yl propanoate] | 3.7 nM |
| C[C@]12Cc3cnn(-c4ccc(F)cc4)c3C=C1CC[C@@H]1[C@@H]2[C@@H](O)C[C@@]2(C)[C@H]1CC[C@]2(OC(=O)c1cccs1)C(=O)SCC#N [Example 115, (1R,3aS,3bS,10aR,10bS,11S,12aS)-1-{[(Cyanomethyl)sulfanyl]carbonyl}-7-(4-fluorophenyl)-11-hydroxy-10a,12a-dimethyl-1,2,3,3a,3b,4,5,7,10,10a,10b,11,12,12a-tetradecahydrocyclopenta[5,6]naphtho[1,2-f]indazol-1-yl thiophene-2-carboxylate] | 10 nM |
| COC1(C(=O)O[C@]2(C(=O)SCC#N)CC[C@H]3[C@@H]4CCC5=Cc6c(cnn6-c6ccc(F)cc6)C[C@]5(C)[C@H]4[C@@H](O)C[C@@]32C)CC1 [Example 135, (1R,3aS,3bS,10aR,10bS,11S,12aS)-1-{[(Cyanomethyl)sulfanyl]carbonyl}-7-(4-fluorophenyl)-11-hydroxy-10a,12a-dimethyl-1,2,3,3a,3b,4,5,7,10,10a,10b,11,12,12a-tetradecahydrocyclopenta[5,6]naphtho[1,2-f]indazol-1-yl 1-methoxycyclopropanecarboxylate] | 7.6 nM |
| C[C@]12Cc3cnn(-c4ccc(F)cc4)c3C=C1CC[C@@H]1[C@@H]2[C@@H](O)C[C@@]2(C)[C@H]1CC[C@]2(OC(=O)C1CC1)C(=O)SCF [Example 38, (1R,3aS,3bS,10aR,10bS,11S,12aS)-1-{[(Fluoromethyl)thio]carbonyl}-7-(4-fluoro-phenyl)-11-hydroxy-10a,12a-dimethyl-1,2,3,3a,3b,4,5,7,10,10a,10b,11,12,12a-tetradecahydrocyclopenta[5,6]naphtho[1,2-f]indazol-1-yl cyclopropanecarboxylate] | 5.7 nM |
| C[C@]12Cc3cnn(-c4ccc(F)cc4)c3C=C1CC[C@@H]1[C@@H]2[C@@H](O)C[C@@]2(C)[C@H]1CC[C@]2(OC(=O)c1nccs1)C(=O)SCCO [Example 40, (1R,3aS,3bS,10aR,10bS,11S,12aS)-7-(4-Fluorophenyl)-11-hydroxy-1-{[(2-hydroxy-ethyl)thio]carbonyl}-10a,12a-dimethyl-1,2,3,3a,3b,4,5,7,10,10a,10b,11,12,12a-tetradecahydrocyclopenta[5,6]naphtho[1,2-f]indazol-1-yl 1,3-thiazole-2-carboxylate] | 2.9 nM |
| CCC(=O)O[C@]1(C(=O)SCOC)CC[C@H]2[C@@H]3CCC4=Cc5c(cnn5-c5ccc(F)cc5)C[C@]4(C)[C@H]3[C@@H](O)C[C@@]21C [Example 14, (1R,3aS,3bS,10aR,10bS,11S,12aS)-7-(4-Fluorophenyl)-11-hydroxy-{[(methoxy-methyl)thio]carbonyl}-10a,12a-dimethyl-1,2,3,3a,3b,4,5,7,10,10a,10b,11,12,12a-tetradecahydrocyclopenta[5,6]naphtho[1,2-f]indazol-1-yl propanoate] | 3.6 nM |
| COCC(=O)O[C@]1(C(=O)SCC(C)=O)CC[C@H]2[C@@H]3CCC4=Cc5c(cnn5-c5ccc(F)cc5)C[C@]4(C)[C@H]3[C@@H](O)C[C@@]21C [Example 33, (1R,3aS,3bS,10aR,10bS,11S,12aS)-7-(4-Fluorophenyl)-11-hydroxy-10a,12a-dimethyl-1-{[(2-oxopropyl)thio]carbonyl}-1,2,3,3a,3b,4,5,7,10a,10 b,11,12,12a-tetradecahydrocyclopenta[5,6]naphtho[1,2-f]indazol-1-yl methoxyacetate] | 2.7 nM |
| (1R,3aS,3bS,10aR,10bS,11S,12aS)-1-{[(Cyanomethyl)sulfanyl]carbonyl}-7-(4-fluorophenyl)-11-hydroxy-10a,12a-dimethyl-1,2,3,3a,3b,4,5,7,10,10a,10b,11,12,12a-tetradecahydrocyclopenta[5,6]naphtho[1,2]-indazol-1-yl 2-methyltetrahydrofuran-2-carboxylate [Example 132] | 4 nM |
| C[C@]12Cc3cnn(-c4ccc(F)nc4)c3C=C1CC[C@@H]1[C@@H]2[C@@H](O)C[C@@]2(C)[C@H]1CC[C@]2(OC(=O)[C@H]1CCCO1)C(=O)SCF [Example 187, (1R,3aS,3bS,10aR,10bS,11S,12aS)-1-{[(Fluoromethyl)sulfanyl]carbonyl}-7-(6-fluoropyridin-3-yl)-11-hydroxy-10a,12a-dimethyl-1,2,3,3a,3b,4,5,10,10a,10b,11,12,12a-tetradecahydrocyclopenta[5,6]naphtho[1,2-f]indazol-1-yl (2R)-tetrahydrofuran-2-carboxylate] | 2.3 nM |
| CNC(=O)[C@@]1(OC(=O)c2ccco2)CC[C@H]2[C@@H]3CCC4=Cc5c(cnn5-c5ccc(F)cc5)C[C@]4(C)[C@H]3[C@@H](O)C[C@@]21C [Example 69, (1R,3aS,3bS,10aR,10bS,11S,12aS)-7-(4-Fluorophenyl)-11-hydroxy-10a,12a-dimethyl-1-(methylcarbamoyl)-1,2,3,3a,3b,4,5,7,10,10a,10b,11,12,12a-tetradecahydropcyclopenta[5,6]naphtho[1,2-f]indazol-1-yl furan-2-carboxylate] | 3 nM |
